Two compounds from patent US20210276967A1 (OSPEDALE SAN RAFFAELE S.R.L., priority 2018, published 2021) can be followed below.

Several values for one entry are separate records, joined by “and”; a condition that tells them apart may be missing. Identical values can stand only once. Like-named read-outs stand apart in the source and are kept apart here.

The series is described as follows: Mouse PK studies (plasma and liver exposure). The settings on record: for Plasma concentrations / concentration at 24 h / concentration at 8 h / concentration at 0.25 h / concentration at 0.5 h / concentration at 1 h / concentration at 2 h / concentration at 4 h / concentration at 6 h: PO 100 mpk in 0.5% methocell; for AUC(0-t): read-out: AUC (0-24 h); for AUC: read-out: AUC Extrap. The series is classed as in vivo, C57BL/6 mice. The arrangement: Liver [mM]: unit not given here. The source says: C57BL/6 mice are used to evaluate plasma and liver exposure and pharmacokinetic parameters after intravenous and oral administration (from 2 to 200 mpk according to the compound tested and the administration route). 12 (+3 spare) healthy C57BL/6N male mice are obtained from Charles River S.p.A. Calco (Como), Italy. Animals are ordered weighing 21 to 27 grams and approximately 7 weeks old. Before and during testing, animals are housed in Individual Ventilated Cages (IVCs Tecniplast) with sawdust as bedding (three animals for cage). Cages are identified by a color code label recording the sample ID, animal number and details of treatment (route, dose and sex). Animals are identified by unique number on tail via permanent marker. Animal room controls are set to maintain temperature within the range from 20 to 24° C. and relative humidity within the range from 40 to 70% and an average daily airflow of at least 10 fresh air changes per hour. Actual conditions are recorded. The room is lit by fluorescent tubes controlled to give an artificial cycle of 12 hours light and 12 hours dark each day. All animals are weighed immediately before testing. Animals are dosed IV in a fed state and PO in a fasted state.
Compounds (from 0.4 to 20 mg/mL according to the compound tested and the administration route) are dissolved in DMSO/PEG400/H2O (20/60/20) for IV administration and 0.5% Methocel E50 or 20% Hydroxypropyl-β-cyclodextrin (HP-β-CD) in citrate buffer pH=5 for PO administration. The appropriate dose volume of the test item, calculated for each animal according to body weight (administration volume: 5 mL/kg for IV or 5 mL/kg or 10 mL/kg for PO), is administered by injection into lateral tail vein using 2.5 mL syringe (BD Plasipak) for IV administration and administered orally by gavage using 5 mL Syringe (BD Plastipak) for PO administration. Whole blood sample (about 0.200 mL) is collected via retro orbital sinus using Isoflurane as anesthetic. Blood is collected in Li-Heparin Sartsted® gel tubes appropriately labeled indicating animal number and time point. Tubes are put in wet ice and then centrifuged within 15 minutes from blood collection. Centrifugation is performed using a Heraeus Multifuge® 3S/3S-R set, at 2200×g for 10 minutes, internal temperature is kept at 4° C. After the centrifugation, about 100 μL of plasma samples are obtained and immediately transferred to 1.5 mL Eppendorf tubes and frozen at −20° C. (24/24 h alarmed). Whole blood samples are collected at different times point (0-0.25-0.5-1-2-4-6-8-24 hours) after dosing and kept frozen (−20° C.) until assayed by LC/MS/MS. Livers are explanted at different time point (0-8-24 hours), washed with saline solution, transferred to Eppendorf tubes and frozen at −80° C. until assayed by LC/MS/MS. Analytical procedures: Plasma samples are extracted using Liquid Handling Robot Hamilton StarPlus by protein precipitation with acetonitrile. Then the samples are centrifuged (3000 rpm×15 min at 4° C.) and the supernatant transferred and dried under nitrogen. The samples are reconstituted in water/acetonitrile 90/10 or 50/50 and then injected directly into an UPLC column. Sample analyses are performed using an API 4000 or/and API 5000 or/and API 4000QTrap Mass Spectrometer interfaced via the Turbo Ion Spray (ESI) to an LC system consisting of an Acquity UPLC Sample Manager autosampler and Acquity UPLC Binary Solvent Manager Pump. The results are calculated using Analyst Software linear regression with 1/x*x weighting. The Assay Precision is calculated for the Quality Controls by Watson Lims database.
Cmax is the maximum compound concentration from oral dosing; Tmax is the time at which Cmax is reached; AUC (0-24) is the area under the concentration vs time curve from 0 to 24 hours; AUC extrap is the area under the curve (AUC) extrapolated to infinity, from dosing time based on the last observed concentration. […]

The mark [1] stands for this setting: male, C57BL/6N, mouse, plasma, po, 100 mg/kg, plasma, PO 100 mg/kg in 0.5% methocell, mice, Mean.
The mark [2] stands for this setting: male, C57BL/6N, mouse, plasma, po, 100 mg/kg, plasma, PO 100 mg/kg in 0.5% methocell, mice, individual subject.
Where [3] appears, read: plasma, PO 100 mg/kg in 0.5% methocell, mice, individual subject, 100 mg/kg.

On to `Nc1ccc(C(=O)Nc2cc(F)c(F)c(F)c2)cc1S(N)(=O)=O` [Example E3, 4-amino-3-sulfamoyl-N-(3,4,5-trifluorophenyl)benzamide], for which the Plasma concentrations by setting is: (0.25 Hours, individual subject, 100 mg/kg) 5.05 µM and 3.95 µM; (0.5 Hours, individual subject, 100 mg/kg) 7.23 µM and 10.6 µM; (1 Hours, individual subject, 100 mg/kg) 17.2 µM and 9.61 µM; (2 Hours, individual subject, 100 mg/kg) 10.7 µM and 17.0 µM; (4 Hours, individual subject, 100 mg/kg) 11.2 µM and 10.6 µM; (6 Hours, individual subject, 100 mg/kg) 10.5 µM and 9.06 µM. In addition, the Plasma concentrations reads like this: (8 Hours, individual subject, 100 mg/kg) 10.4 µM and 12.1 µM; (24 Hours, individual subject, 100 mg/kg) 0.268 µM and 0.184 µM and 0.0502 µM. Further, the concentration at 24 h reads like this: (8 Hours, individual subject, 100 mg/kg, read-out: Liver concentrations) 125.87 µM and 119.96 µM; (24 Hours, individual subject, 100 mg/kg, read-out: Liver concentrations) 0.6272 µM and 3.0342 µM and 1.8500 µM; (male, C57BL/6N, mouse, liver, po, 100 mg/kg, 24 Hours, Mean, read-out: Liver concentrations) 2 µM; (male, C57BL/6N, mouse, plasma, po, 100 mg/kg, 24 Hours, Mean, read-out: Plasma concentrations) 0.2 µM. Moreover, the Kp at 8 h (male, C57BL/6N, mouse, liver, 100 mpk, 8 h after PO administration, read-out: liver levels higher than plasma (ratio liver/plasma concentration)) stood at 13. Further, the concentration at 8 h (male, C57BL/6N, mouse, liver, po, 100 mg/kg, 8 Hours, Mean, read-out: Liver concentrations) stood at 129 µM; the concentration at 8 h (male, C57BL/6N, mouse, liver, po, 100 mg/kg, 8 Hours, individual subject, read-out: Liver concentrations) was found to be 143 µM; the concentration at 8 h (male, C57BL/6N, mouse, plasma, po, 100 mg/kg, 8 Hours, Mean, read-out: Plasma concentrations) was determined as 10 µM; the concentration at 8 h (male, C57BL/6N, mouse, plasma, po, 100 mg/kg, 8 Hours, individual subject, read-out: Plasma concentrations) was determined as 9.01 µM. Also, the concentration at 0.25 h runs as follows: (male, C57BL/6N, mouse, plasma, po, 100 mg/kg, 0.25 Hours, Mean, read-out: Plasma concentrations) 5 µM; (male, C57BL/6N, mouse, plasma, po, 100 mg/kg, 0.25 Hours, individual subject, read-out: Plasma concentrations) 6.15 µM. Further, the concentration at 0.5 h (male, C57BL/6N, mouse, plasma, po, 100 mg/kg, 0.5 Hours, Mean, read-out: Plasma concentrations) worked out at 9 µM and the concentration at 0.5 h (male, C57BL/6N, mouse, plasma, po, 100 mg/kg, 0.5 Hours, individual subject, read-out: Plasma concentrations) is 7.77 µM. Besides, the concentration at 1 h was determined as 12 µM (male, C57BL/6N, mouse, plasma, po, 100 mg/kg, 1 Hours, Mean, read-out: Plasma concentrations) and 10.2 µM (male, C57BL/6N, mouse, plasma, po, 100 mg/kg, 1 Hours, individual subject, read-out: Plasma concentrations). Further, the concentration at 2 h by setting is: (male, C57BL/6N, mouse, plasma, po, 100 mg/kg, 2 Hours, Mean, read-out: Plasma concentrations) 14 µM; (male, C57BL/6N, mouse, plasma, po, 100 mg/kg, 2 Hours, individual subject, read-out: Plasma concentrations) 13 µM. For the same compound, the concentration at 4 h by setting is: (male, C57BL/6N, mouse, plasma, po, 100 mg/kg, 4 Hours, Mean, read-out: Plasma concentrations) 11 µM; (male, C57BL/6N, mouse, plasma, po, 100 mg/kg, 4 Hours, individual subject, read-out: Plasma concentrations) 10.9 µM. Besides, the concentration at 6 h worked out at 10 µM (male, C57BL/6N, mouse, plasma, po, 100 mg/kg, 6 Hours, Mean, read-out: Plasma concentrations) and 11.9 µM (male, C57BL/6N, mouse, plasma, po, 100 mg/kg, 6 Hours, individual subject, read-out: Plasma concentrations). In addition, the maximum concentration (Cmax) is 16 µM (male, C57BL/6N, mouse, plasma, po, 100 mg/kg, PO 100 mg/kg in 0.5% methocell, mice, Mean); 17.2 µM (male, C57BL/6N, mouse, plasma, po, 100 mg/kg, PO 100 mg/kg in 0.5% methocell, mice, individual subject); 17 µM and 13 µM under setting [3]. Also, the AUC(0-t) under setting [1] amounted to 172 µM·h and the AUC(0-t) under setting [2] was 171 µM·h. For the same compound, the exposure (AUC) was 173 µM·h under setting [1] and 172 µM·h under setting [2]. The Tmax is 1.7 h (male, C57BL/6N, mouse, plasma, po, 100 mg/kg, plasma, PO 100 mg/kg in 0.5% methocell, mice, Mean, read-out: Tmax); 1 h (male, C57BL/6N, mouse, plasma, po, 100 mg/kg, plasma, PO 100 mg/kg in 0.5% methocell, mice, individual subject, read-out: Tmax); 2.00 h under setting [3]. For the same compound, the clearance (male, C57BL/6N, mouse, plasma, mice, read-out: in vivo clearance) was 10 mL/min/kg. Under setting [3], the “AUC (0-24 h)” value was 186 µM·h and 160 µM·h. In addition, under setting [3], the “AUC Extrap” value was 186.4 µM·h and 161.7 µM·h.
For `Cc1cc(N)c(S(N)(=O)=O)cc1C(=O)Nc1cc(F)c(F)c(F)c1` [Example E17, 4-amino-2-methyl-5-sulfamoyl-N-(3,4,5-trifluorophenyl)benzamide], the “Liver [mM]” value reads like this: (PO 25 mg/kg in 0.5% methocell, mice) 317; (PO 75 mg/kg in 0.5% methocell, mice) 747; (PO 150 mg/kg in 0.5% methocell, mice) 677. Further, the Kp worked out at 15.9 (male, C57BL/6N, mouse, liver, PO 25 mg/kg in 0.5% methocell, mice); 14.4 (male, C57BL/6N, mouse, liver, PO 75 mg/kg in 0.5% methocell, mice); 13.8 (male, C57BL/6N, mouse, liver, PO 150 mg/kg in 0.5% methocell, mice).

For orientation: Cmax means the highest concentration seen after dosing. What is called AUC is the area under the concentration-time curve, a measure of exposure. By Tmax is commonly meant the time from dosing to the highest level. The clearance is the rate of elimination divided by the concentration.
